{"source": "PubChem BioAssay AID1259409", "about": "(Chemical Carcinogenesis Research Information System (CCRIS), 2018)", "origin": "cited, not measured here", "test_system": "rodent chemically induced tumor inhibition, incidence and multiplicity", "assay": "CCRIS tumor inhibitor studies", "note": "Where “and” joins values, the source holds several entries; their conditions need not be identical. Identical values can stand only once.", "data": [{"smiles": "CCCCC/C=C/CC/C=C/CCCCCCC(=O)O", "values": [{"measurement": "tumour outcome (control, treated, inhibition, significance)", "setting": "Carcinogen: BENZO[A]PYRENE, 50-32-8, Dose [Inhibitor]: 0, 0.1 ML IN 0.1 ML OLIVE OIL 4 AND 2 D PRIOR TO CARCINOGEN DOSE (CYCLE REPEATED 4 X) (STUDY DURATION: 23 WK), Route [Inhibitor]: GAVAGE, Species: MOUSE, Strain/Sex: ICR/FEMALE, Target Tissue: Type of Lesion: STOMACH: PAPILLOMA, Dose [Carcinogen]: 2 MG IN 0.2 ML OLIVE OIL 1/WK FOR 4 WK", "value": "91%, 71%, 22%, p<0.05 and 96%, 96%, 0% and 100%, 71%, 29%, p<0.05"}]}, {"smiles": "C[Si](C)(C)c1cc(C(=O)Nc2ccc(C(=O)O)cc2)cc([Si](C)(C)C)c1", "values": [{"measurement": "outcome", "setting": "Carcinogen: N-methyl-N-nitrosourea (684-93-5), Dose [Inhibitor]: 0, 0.8 mg/kg by gavage 5 d/wk for 1 wk, study duration 4 wks, Dose [Inhibitor]: 0, 0.8 mg/kg by gavage 5 d/wk for 1 wk, study duration 4 wks, Route [Inhibitor]: Oral, Species: Rat, Strain/Sex: F344/DuCrj/Male, Dose [Carcinogen]: 2 mg/rat, 3 x a wk for 4 wks", "value": "colon: tumors"}, {"measurement": "outcome", "setting": "Carcinogen: N-methyl-N-nitrosourea (684-93-5), Dose [Inhibitor]: 0, 0.8 mg/kg by gavage 5 d/wk for 4 wks, study duration 4 wks, Dose [Inhibitor]: 0, 0.8 mg/kg by gavage 5 d/wk for 4 wks, study duration 4 wks, Route [Inhibitor]: Oral, Species: Rat, Strain/Sex: F344/DuCrj/Male, Dose [Carcinogen]: 2 mg/rat, 3 x a wk for 4 wks", "value": "colon: tumors"}, {"measurement": "outcome", "setting": "Carcinogen: N-methyl-N-nitrosourea (684-93-5), Dose [Inhibitor]: 0, 8 mg/kg by gavage 5 d/wk for 1 wk, study duration 4 wks, Dose [Inhibitor]: 0, 8 mg/kg by gavage 5 d/wk for 1 wk, study duration 4 wks, Route [Inhibitor]: Oral, Species: Rat, Strain/Sex: F344/DuCrj/Male, Dose [Carcinogen]: 2 mg/rat, 3 x a wk for 4 wks", "value": "colon: tumors"}, {"measurement": "outcome", "setting": "Carcinogen: N-methyl-N-nitrosourea (684-93-5), Dose [Inhibitor]: 0, 8 mg/kg by gavage 5 d/wk for 4 wks, study duration 4 wks, Dose [Inhibitor]: 0, 8 mg/kg by gavage 5 d/wk for 4 wks, study duration 4 wks, Route [Inhibitor]: Oral, Species: Rat, Strain/Sex: F344/DuCrj/Male, Dose [Carcinogen]: 2 mg/rat, 3 x a wk for 4 wks", "value": "colon: tumors"}]}, {"smiles": "COc1cc(/C=C/C(=O)OCCc2ccccc2)ccc1O", "values": [{"measurement": "tumour outcome (control, treated, inhibition, significance)", "setting": "Carcinogen: AZOXYMETHANE, 25843-45-2, Dose [Inhibitor]: 0, 750 PPM IN DIET FOR 56 WK BEGINNING 2 WK PRIOR TO CARCINOGEN TREATMENT (STUDY DURATION: 56 WK), Route [Inhibitor]: ORAL, Species: RAT, Strain/Sex: F344/MALE, Target Tissue: Type of Lesion: COLON: ADENOCARCINOMA, Dose [Carcinogen]: 15 MG/KG BW 1/WK FOR 2 WK, Promoter: NONE USED", "value": "81%, 43%, 47%, p<0.002"}, {"measurement": "tumour outcome (control, treated, inhibition, significance)", "setting": "Carcinogen: AZOXYMETHANE, 25843-45-2, Dose [Inhibitor]: 0, 750 PPM IN DIET FOR 56 WK BEGINNING 2 WK PRIOR TO CARCINOGEN TREATMENT (STUDY DURATION: 56 WK), Route [Inhibitor]: ORAL, Species: RAT, Strain/Sex: F344/MALE, Target Tissue: Type of Lesion: EAR DUCT: TUMOR, Dose [Carcinogen]: 15 MG/KG BW 1/WK FOR 2 WK, Promoter: NONE USED", "value": "25%, 0%, 100%, p<0.02"}, {"measurement": "tumour outcome (control, treated, inhibition, significance)", "setting": "Carcinogen: AZOXYMETHANE, 25843-45-2, Dose [Inhibitor]: 0, 750 PPM IN DIET FOR 56 WK BEGINNING 2 WK PRIOR TO CARCINOGEN TREATMENT (STUDY DURATION: 56 WK), Route [Inhibitor]: ORAL, Species: RAT, Strain/Sex: F344/MALE, Target Tissue: Type of Lesion: SMALL INTESTINE: INVASIVE ADENOCARCINOMA, Dose [Carcinogen]: 15 MG/KG BW 1/WK FOR 2 WK, Promoter: NONE USED", "value": "16%, 10%, 38%, not significant"}]}, {"smiles": "COc1ccc(-c2cc(=O)c3c(OC)c(OC)c(OC)c(OC)c3o2)cc1OC", "values": [{"measurement": "outcome", "setting": "Carcinogen: AZOXYMETHANE [25843-45-2], Dose [Inhibitor]: 0.01% IN DIET FOR 34 WK, 1 WK AFTER LAST AZOXYMETHANE INJECTION (STUDY DURATION: 36 WK), Route [Inhibitor]: DIET, Species: RAT, Strain/Sex: F344/MALE, Target Tissue: Type of Lesion: LARGE INTESTINE: ADENOCARCINOMA, Dose [Carcinogen]: 20 MG/KG 1X A WK FOR 2 WK", "value": "67, 55, 18%, not significant"}, {"measurement": "outcome", "setting": "Carcinogen: AZOXYMETHANE [25843-45-2], Dose [Inhibitor]: 0.01% IN DIET FOR 34 WK, 1 WK AFTER LAST AZOXYMETHANE INJECTION (STUDY DURATION: 36 WK), Route [Inhibitor]: DIET, Species: RAT, Strain/Sex: F344/MALE, Target Tissue: Type of Lesion: LARGE INTESTINE: ADENOMA, Dose [Carcinogen]: 20 MG/KG 1X A WK FOR 2 WK", "value": "33, 45, -36%"}, {"measurement": "outcome", "setting": "Carcinogen: AZOXYMETHANE [25843-45-2], Dose [Inhibitor]: 0.05% IN DIET FOR 34 WK, 1 WK AFTER LAST AZOXYMETHANE INJECTION (STUDY DURATION: 36 WK), Route [Inhibitor]: DIET, Species: RAT, Strain/Sex: F344/MALE, Target Tissue: Type of Lesion: LARGE INTESTINE: ADENOCARCINOMA, Dose [Carcinogen]: 20 MG/KG 1X A WK FOR 2 WK", "value": "67, 35, 48%, p<0.05"}, {"measurement": "outcome", "setting": "Carcinogen: AZOXYMETHANE [25843-45-2], Dose [Inhibitor]: 0.05% IN DIET FOR 34 WK, 1 WK AFTER LAST AZOXYMETHANE INJECTION (STUDY DURATION: 36 WK), Route [Inhibitor]: DIET, Species: RAT, Strain/Sex: F344/MALE, Target Tissue: Type of Lesion: LARGE INTESTINE: ADENOMA, Dose [Carcinogen]: 20 MG/KG 1X A WK FOR 2 WK", "value": "33, 50, -52%"}]}, {"smiles": "CC(O)C(=O)O", "note": "(stereo unspecified)", "values": [{"measurement": "outcome", "setting": "Carcinogen: 1,2-DIMETHYLHYDRAZINE, 540-73-8, Dose [Inhibitor]: 0, 3.2 G/L IN DRINKING WATER FOR DURATION OF STUDY (STUDY DURATION: 34 WK), Route [Inhibitor]: ORAL, Species: RAT, Strain/Sex: SPRAGUE-DAWLEY/MALE, FEMALE, Target Tissue: Type of Lesion: COLON: TUMOR, Dose [Carcinogen]: 21 MG/KG 1/WK FOR 18 WK, Promoter: NONE USED", "value": "28/29 (97%), 18/28 (64%), not calculated"}]}, {"smiles": "Cc1cc(NC(=O)[C@H](CCCN=C(N)N)NC(=O)[C@H](CO)NC(=O)[C@H](Cc2ccccc2)NC(=O)OC(C)(C)C)cc2oc(=O)ccc12", "values": [{"measurement": "tumour outcome (control, treated, inhibition, significance)", "setting": "Carcinogen: 1,2-DIMETHYLHYDRAZINE, 540-73-8, Dose [Inhibitor]: 0, 2429 UG/G IN DIET FOR 32 WK BEGINNING AT 24 D OF AGE (STUDY DURATION: 32 WK), Route [Inhibitor]: ORAL, Species: RAT, Strain/Sex: SPRAGUE-DAWLEY/MALE, Target Tissue: Type of Lesion: COLON: ADENOCARCINOMA, Dose [Carcinogen]: 20 MG/KG 1/WK FOR 15 WK BEGINNING ON D 37, Promoter: NONE USED", "value": "19/22 (86%), 11/16 (69%), 20%, not calculated"}, {"measurement": "tumour outcome (control, treated, inhibition, significance)", "setting": "Carcinogen: 1,2-DIMETHYLHYDRAZINE, 540-73-8, Dose [Inhibitor]: 0, 2429 UG/G IN DIET FOR 32 WK BEGINNING AT 24 D OF AGE (STUDY DURATION: 32 WK), Route [Inhibitor]: ORAL, Species: RAT, Strain/Sex: SPRAGUE-DAWLEY/MALE, Target Tissue: Type of Lesion: SMALL INTESTINE: ADENOCARCINOMA, Dose [Carcinogen]: 20 MG/KG 1/WK FOR 15 WK BEGINNING ON D 37, Promoter: NONE USED", "value": "18/22 (82%), 10/16 (63%), 23%, not calculated"}]}, {"smiles": "O=S(=O)(O)c1ccccc1", "values": [{"measurement": "tumour outcome (control, treated, inhibition, significance)", "setting": "Carcinogen: BETA-PROPIOLACTONE, 57-57-8, Dose [Inhibitor]: 40 UMOL IN 0.2 ML WATER 5 MIN PRIOR TO EACH CARCINOGEN DOSE (STUDY DURATION: 26 WK), Route [Inhibitor]: GAVAGE, Species: MOUSE, Strain/Sex: STRAIN-A/FEMALE, Target Tissue: Type of Lesion: FORESTOMACH: PAPILLOMA, Dose [Carcinogen]: 28 UMOL IN 0.1 ML WATER 2/WK FOR 10 WK, Promoter: NONE USED", "value": "100%, 100%, 0%, not significant"}]}]}
